Test results taken from ChEMBL document CHEMBL3751678, “Stabilizing G-quadruplex DNA by methylazacalix[n]pyridine through shape-complementary interaction” (Bioorg Med Chem Lett, 2016).

What was measured:
Homo sapiens [1] = species on record: Homo sapiens; assay: Stabilization of human T12 G-quadruplex DNA assessed as change in melting temparature by circular dichroism analysis
Homo sapiens [2] = species on record: Homo sapiens; assay: Stabilization of human H12 G-quadruplex DNA assessed as change in melting temparature by circular dichroism analysis
[3] = Stabilization of TBA G-quadruplex DNA (unknown origin) assessed as change in melting temparature by circular dichroism analysis
[4] = Stabilization of c-kit G-quadruplex DNA (unknown origin) assessed as change in melting temparature by circular dichroism analysis
[5] = Stabilization of Bcl2 G-quadruplex DNA (unknown origin) assessed as change in melting temparature by circular dichroism analysis

SMILES	ΔTm (Homo sapiens [1]) [°C]	ΔTm (Homo sapiens [2]) [°C]	ΔTm [3] [°C]	ΔTm [4] [°C]	ΔTm [5] [°C]
CN1c2cccc(n2)N(C)c2cccc(n2)N(C)c2cccc(n2)N(C)c2cccc(n2)N(C)c2cccc(n2)N(C)c2cccc(n2)N(C)c2cccc1n2	0	0	0	0	0
Cn1c2cccc(n2)n(C)c2cccc(n2)n(C)c2cccc(n2)n(C)c2cccc(n2)n(C)c2cccc(n2)n(C)c2cccc1n2	4	7	0	0	0
CN1c2cccc(n2)N(C)c2cccc(n2)N(C)c2cccc(n2)N(C)c2cccc1n2	0	0	0	0	0
CN1c2cccc(n2)N(C)c2cccc(n2)N(C)c2cccc(n2)N(C)c2cccc(n2)N(C)c2cccc(n2)N(C)c2cccc(n2)N(C)c2cccc(n2)N(C)c2cccc(n2)N(C)c2cccc1n2	0	0	0	0	0
CN1c2cccc(n2)N(C)c2cccc(n2)N(C)c2cccc(n2)N(C)c2cccc(n2)N(C)c2cccc(n2)N(C)c2cccc(n2)N(C)c2cccc(n2)N(C)c2cccc1n2	0	0	0	0	0
